Holding throughout (format): cell-based
The target in assay [1] is T1, human recombinant prostanoid IP receptor (Homo sapiens, UniProt P43119).
T1 construct: expressed in transfected cells
As to the kind of experiment: FLIPR Ca2+ signaling, PG antagonist activity, IP. The following applies: antagonism of standard agonist Cicaprost, HEK-293 EBNA stable cells. How it is done:
(§1) The above compounds were tested for PG antagonist activity as follows using human recombinant prostanoid receptor (DP1, EP1-4, FP, IP and TP) stable cell lines:
(§2) In order to measure the response of Gs and Gi coupled prostanoid receptors as a Ca^2+ signal, chimeric G protein cDNAs were used. Stable cell lines over-expressing human prostanoid DP1, EP1-4, FP, IP, and TP receptors were established as follows:
(§3) Briefly, human prostanoid DP1, EP2, and EP4 receptor cDNAs were co-transfected with chimeric Gqs cDNA containing a haemagglutanin (HA) epitope; human prostanoid EP3 receptors were co-transfected with chimeric Gqi-HA; human EP1, FP, IP, and TP receptor cDNAs were expressed with no exogenous G-proteins. Gqs and Gqi chimeric cDNAs (Molecular Devices, Sunnyvale, Calif., U.S.A.), as well as cDNAs of prostanoid receptors, were cloned into a pCEP4 vector with a hygromycin B selection marker. Transfection into HEK-293 EBNA (Epstein-Barr virus nuclear antigen) cells was achieved by the FuGENE 6 transfection Reagent (Roche Applied Science, Indianapolis, Ind., USA). Stable transfectants were selected according to hygromycin resistance. Because Gqs and Gqi contained an HA epitope, G-protein expression was detected by Western blotting analysis using anti-mouse HA monoclonal antibody and horseradish peroxidase (HRP)-conjugated secondary antibody, while functional expression of prostanoid receptors was detected by FLIPR screening (Matias et al., 2004). These stable cell lines were validated using previously published antagonists at 10 μM against serial dilutions of standard agonists by FLIPR functional assays for Ca^2− Signaling (as described below).
(§4) Ca^2+ signaling studies were performed using a FLIPR TETRA system (Molecular Devices, Sunnyvale, Calif., USA) in the 384-format. This is a high-throughput instrument for cell-based assays to monitor Ca^2+ signaling associated with GPCRs and ion channels. Cells were seeded at a density of 5×10^4 cells/well in BioCoat poly-D-lysine coated, black wall, clear bottom 384-well plates (BD Biosciences, Franklin lakes, N.J., USA) and allowed to attach overnight in an incubator at 37° C. The cells were then washed twice with HBSS-HEPES buffer (Hanks' balanced salt solution without bicarbonate and phenol red, 20 mM HEPES, pH 7.4) using an ELx405 Select CW Microplate Washer (BioTek, Winooski, Vt., USA). After 60 min of dye-loading in the dark using the Ca^2+-sensitive dye Fluo-4AM (Invitrogen, Carlsbad, Calif., USA), at a final concentration of 2×10^−6M, the plates were washed 4 times with HBSS-HEPES buffer to remove excess dye and leaving 50 μl of buffer in each well. The plates were then placed in the FLIPR TETRA instrument and allowed to equilibrate at 37° C. AGN-211377 was added in a 25 μl volume to each well to give final concentrations of 0.1 μM, 0.3 μM, 1 μM, 3 μM, 10 μM, and 30 μM; or 0.067 μM, 0.1 μM, 0.2 μM, 0.3 μM, 0.67 μM, and 1 μM for cells over-expressing TP receptors. After 4.5 minutes, a 7-point serial dilution of the standard agonist for the corresponding receptor, in a 25 μl volume was injected at the final concentrations from 10^−11M to 10^−5M in 10-fold serial dilution increments for cells expressing human recombinant DP1, EP1, EP2, EP3, EP4, FP, and IP receptors. The dose range for the standard agonist for human recombinant TP receptors was from 10^−12M to 10^−6M. HBSS-HEPES buffer was used as the negative control for the standard agonists. Cells were excited with LED (light emitting diode) excitation at 470-495 nm and emission was measured through an emission filter at 515-575 nm. Assay plates were read for 3.5 minutes using the FLIPR^TETRA. The peak increase in fluorescence intensity was recorded for each well. On each plate, negative controls, dose response of positive controls, and co-treatments of antagonist-agonist for each dose were in triplicates. Standard agonists were as follows: DP=BW 245C, EP1-EP4=PGE2, FP=17-phenyl-PGF2α, IP=Cicaprost, and TP=U-46619. […]

Assay [2] concerns the target T2, human recombinant prostanoid TP receptor (Homo sapiens, UniProt P21731).
T2 construct: expressed in transfected cells
T2 sequence (P21731 1-343): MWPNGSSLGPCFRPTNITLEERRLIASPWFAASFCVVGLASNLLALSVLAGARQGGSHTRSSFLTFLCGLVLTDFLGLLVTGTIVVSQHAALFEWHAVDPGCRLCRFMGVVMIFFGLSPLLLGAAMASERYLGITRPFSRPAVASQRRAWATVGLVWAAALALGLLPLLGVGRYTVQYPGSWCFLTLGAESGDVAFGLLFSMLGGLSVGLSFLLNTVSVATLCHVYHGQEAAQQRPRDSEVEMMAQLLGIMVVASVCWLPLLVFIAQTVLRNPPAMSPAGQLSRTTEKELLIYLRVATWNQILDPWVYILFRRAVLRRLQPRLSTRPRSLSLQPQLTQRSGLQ
As to the kind of experiment: FLIPR Ca2+ signaling, PG antagonist activity, TP. The conditions noted are these: antagonism of standard agonist U-46619, HEK-293 EBNA stable cells. How it is done: as §1, §2, §3, §4

The target in assay [3] is T3, human recombinant prostanoid EP1 receptor (Homo sapiens, UniProt P34995).
T3 construct: expressed in transfected cells
T3 sequence (P34995 1-402): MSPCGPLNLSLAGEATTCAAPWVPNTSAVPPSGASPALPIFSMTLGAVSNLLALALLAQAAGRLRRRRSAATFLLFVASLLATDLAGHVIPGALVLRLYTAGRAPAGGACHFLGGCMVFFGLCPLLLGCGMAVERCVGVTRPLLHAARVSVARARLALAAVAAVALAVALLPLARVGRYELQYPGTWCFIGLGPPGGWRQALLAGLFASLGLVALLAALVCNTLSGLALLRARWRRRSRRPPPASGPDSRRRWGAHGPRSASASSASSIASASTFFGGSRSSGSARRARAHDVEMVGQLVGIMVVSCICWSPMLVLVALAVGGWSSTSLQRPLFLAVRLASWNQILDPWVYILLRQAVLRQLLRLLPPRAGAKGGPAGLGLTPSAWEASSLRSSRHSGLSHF
As to the kind of experiment: FLIPR Ca2+ signaling, PG antagonist activity, EP1. The conditions noted are these: antagonism of standard agonist PGE2, HEK-293 EBNA stable cells. How it is done:
as §1, §2, §3, §4

The target of assay [4] is T4, human recombinant prostanoid EP4 receptor (Homo sapiens, UniProt P35408).
T4 construct: expressed in transfected cells; co-transfected with chimeric Gqs-HA
As to the kind of experiment: FLIPR Ca2+ signaling, PG antagonist activity, EP4. The following applies: antagonism of standard agonist PGE2, HEK-293 EBNA stable cells with chimeric Gqs. How it is done: as §1, §2, §3, §4

T4 sequence (P35408 whole entry): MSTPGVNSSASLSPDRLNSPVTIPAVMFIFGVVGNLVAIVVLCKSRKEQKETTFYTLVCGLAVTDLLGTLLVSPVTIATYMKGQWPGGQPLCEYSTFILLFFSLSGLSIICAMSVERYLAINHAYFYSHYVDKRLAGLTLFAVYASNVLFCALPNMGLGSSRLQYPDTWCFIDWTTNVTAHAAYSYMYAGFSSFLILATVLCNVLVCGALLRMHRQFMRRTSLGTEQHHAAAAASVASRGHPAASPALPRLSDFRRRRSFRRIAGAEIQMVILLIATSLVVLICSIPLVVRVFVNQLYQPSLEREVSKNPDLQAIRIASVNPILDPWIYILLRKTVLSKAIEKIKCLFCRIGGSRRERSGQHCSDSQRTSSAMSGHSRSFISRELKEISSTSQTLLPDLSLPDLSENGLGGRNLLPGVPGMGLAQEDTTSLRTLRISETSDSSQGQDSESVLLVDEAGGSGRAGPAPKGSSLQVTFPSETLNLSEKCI
T1 sequence (P43119 whole entry): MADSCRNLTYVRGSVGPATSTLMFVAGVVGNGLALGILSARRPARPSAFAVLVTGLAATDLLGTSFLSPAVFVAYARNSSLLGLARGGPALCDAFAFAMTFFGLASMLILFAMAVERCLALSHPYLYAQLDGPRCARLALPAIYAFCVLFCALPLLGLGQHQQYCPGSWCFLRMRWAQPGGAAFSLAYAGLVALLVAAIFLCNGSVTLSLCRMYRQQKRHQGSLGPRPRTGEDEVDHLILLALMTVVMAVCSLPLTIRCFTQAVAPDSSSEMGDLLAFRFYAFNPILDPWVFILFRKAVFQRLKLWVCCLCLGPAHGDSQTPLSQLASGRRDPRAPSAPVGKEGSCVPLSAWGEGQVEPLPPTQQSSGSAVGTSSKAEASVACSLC

The Kb is the equilibrium dissociation constant of an antagonist, usually derived from a functional assay. As to `CCC(CC)COc1ccc(Br)cc1Cn1ncc(CC(=O)O)c1C` [Example 1, {1-[5-bromo-2-(2-ethyl-butoxy)-benzyl]-5-methyl-1H-pyrazol-4-yl}-acetic acid], the antagonist dissociation constant (Kb) in assay [1] worked out at 4800 nM; in assay [2], 3 nM; in assay [3], 170 nM; in assay [4], 100 nM.

Turning to `CCC(CC)COc1ccc(Br)cc1Cn1ncc(C(=O)O)c1C` [Example 2, 1-[5-bromo-2-(2-ethyl-butoxy)-benzyl]-5-methyl-1H-pyrazole-4-carboxylic acid], the Kb in assay [1] was found to be 2400 nM; in assay [2], 12 nM; in assay [3], 33 nM; in assay [4], 380 nM.

Consider `CCC(CC)COc1ccc(Br)cc1Cn1cc(C(=O)O)c(C)n1` [Example 3], for which the Kb is 1400 nM in assay [1], 30 nM in assay [2], 30 nM in assay [3] and 1300 nM in assay [4].

For the compound `CCC(CC)COc1ccc(Cl)cc1Cn1cc(C(=O)O)cn1` [Example 4, 1-[5-chloro-2-(2-ethyl-butoxy)-benzyl]-1H-pyrazole-4-carboxylic acid], the Kb in assay [1] was 3100 nM; in assay [2], 100 nM; in assay [3], 140 nM; in assay [4] it was 4800 nM.

Turning to `CCC(CC)COc1ccc(Cl)cc1Cn1nc(C)c(C(=O)O)c1C` [Example 5, 1-[5-chloro-2-(2-ethyl-butoxy)-benzyl]-3,5-dimethyl-1H-pyrazole-4-carboxylic acid], the Kb in assay [1] came to 600 nM; in assay [2], 18 nM; in assay [3], 20 nM; in assay [4], 860 nM.

For the compound `CCCc1nn(Cc2cc(Cl)ccc2OCC(CC)CC)cc1C(=O)O` [Example 6, 1-[5-chloro-2-(2-ethyl-butoxy)-benzyl]-3-propyl-1H-pyrazole-4-carboxylic acid], the Kb was at least 10000 nM in assay [1], 500 nM in assay [2], 1500 nM in assay [3] and 4900 nM in assay [4].

Take `CCCc1c(C(=O)O)cnn1Cc1cc(Cl)ccc1OCC(CC)CC` [Example 7, 1-[5-chloro-2-(2-ethyl-butoxy)-benzyl]-5-propyl-1H-pyrazole-4-carboxylic acid]: the antagonist equilibrium constant (Kb) in assay [1] was determined as 1800 nM; in assay [2] it was 150 nM; in assay [3], 640 nM; in assay [4], 3300 nM.

For the compound `CCC(CC)COc1ccc(C(F)(F)F)cc1Cn1ncc(C(=O)O)c1C` [Example 8, 1-[2-(2-ethyl-butoxy)-5-trifluoromethyl-benzyl]-5-methyl-1H-pyrazole-4-carboxylic acid], the Kb in assay [1] is at least 10000 nM; in assay [2], 45 nM; in assay [3], 40 nM; in assay [4], 1600 nM.

With `CCC(CC)COc1ccc(C(F)(F)F)cc1Cn1cc(C(=O)O)c(C)n1` [Example 9, 1-[2-(2-ethyl-butoxy)-5-trifluoromethyl-benzyl]-3-methyl-1H-pyrazole-4-carboxylic acid], the antagonist dissociation constant (Kb) in assay [1] was at least 10000 nM; in assay [2] it was 440 nM; in assay [3], 440 nM; in assay [4], at least 10000 nM.

On to `CCC(CC)COc1ccc(Cl)cc1Cn1ncc(C(=O)O)c1C` [Example 10, 1-[5-chloro-2-(2-ethyl-butoxy)-benzyl]-5-methyl-1H-pyrazole-4-carboxylic acid], for which the Kb in assay [1] came out at 1300 nM; in assay [2] it was 6 nM; in assay [3], 50 nM; in assay [4], 500 nM.

For the compound `Cc1c(C(=O)O)cnn1Cc1cc(Cl)ccc1OCC(C)C` [Example 11, 1-(5-chloro-2-isobutoxy-benzyl)-5-methyl-1-pyrazole-4-carboxylic acid], the Kb in assay [1] turned out to be 8300 nM; in assay [2], 80 nM; in assay [3], 30 nM; in assay [4], 3300 nM.

As for `Cc1c(C(=O)O)cnn1Cc1cc(Cl)ccc1OCC1CCCC1` [Example 12, 1-(5-chloro-2-cyclopentylmethoxy-benzyl)-5-methyl-1H-pyrazole-4-carboxylic acid], the Kb worked out at 2650 nM in assay [1], 40 nM in assay [2], 30 nM in assay [3] and 600 nM in assay [4].

Regarding `Cc1c(C(=O)O)cnn1Cc1cc(Br)ccc1OCC(C)C` [Example 13, 1-(5-bromo-2-isobutoxy-benzyl)-5-methyl-1H-pyrazole-4-carboxylic acid], the Kb in assay [1] was determined as 7700 nM; in assay [2] it was 20 nM; in assay [3], 30 nM; in assay [4], 2100 nM.

In the case of `Cc1c(C(=O)O)cnn1Cc1cc(Br)ccc1OCC(C)(C)C` [Example 14, 1-[5-bromo-2-(2,2-dimethyl-propoxy)-benzyl]-5-methyl-1H-pyrazole-4-carboxylic acid], the Kb in assay [1] was at least 10000 nM; in assay [2], 20 nM; in assay [3], 30 nM; in assay [4], 1300 nM.

For the compound `CCC(CC)COc1ccc(OC(F)(F)F)cc1Cn1ncc(C(=O)O)c1C` [Example 15, 1-[2-(2-ethyl-butoxy)-5-trifluoromethoxy-benzyl]-5-methyl-1H-pyrazole-4-carboxylic acid], the Kb was at least 10000 nM in assay [1], 8 nM in assay [2], 45 nM in assay [3] and 1500 nM in assay [4].

In the case of `CCC(CC)COc1ccc(Br)cc1Cn1ncc(C(=O)O)c1N` [Example 16, 5-amino-1-[5-bromo-2-(2-ethyl-butoxy)-benzyl]-1H-pyrazole-4-carboxylic acid], the Kb in assay [1] is 5100 nM; in assay [2], 50 nM; in assay [3], 60 nM; in assay [4] it was 300 nM.

For the origin of these results see patent US9035071B2, “Compounds acting at multiple prostaglandin receptors giving a general anti-inflammatory response” (Allergan, Inc., priority 2011, dated 2015).
